Where a SMILES comes first, the peptide text is derived from it. [ ]: non-standard residue; d: D form. βAla = NCCC(=O)O

The subject of the experiment is NCI-H125 cell line (non-small cell lung cancer). Nature of the experiment: cell proliferation assay, NCI-H125 line. The format is cell-based. Conditions: NCI-H125, Table 5; read-out: IC50. The method, then:
The evaluation of the antiproliferative activity of polypeptides F11P13-F11P21 (SEQ ID NO: 12-SEQ ID NO: 20) was performed on the NCI-H125 cell line. […] The antiproliferative effect of the CIGB-300 peptide has been widely characterized in this line (Cirigliano S. M., et al., 2017, Cancer Cell International, 17, 42), therefore, it was selected as a positive control. Tat peptide was used as a negative control. The polypeptides were evaluated at the concentrations of 25, 50, 100 and 200 μM. The cell proliferation assay was performed by a previously described procedure (Perera Y., et al., 2012, J. Pept. Sci, 18 (4):215-23).
The 24 polypeptides identified as SEQ ID NO: 21-SEQ ID NO: 44 maintained the ability to inhibit the phosphorylation of the E7 protein of HPV-16, mediated by CK2, since phosphorylation inhibition values between 60-85% were obtained. […] Evaluation of the antiproliferative activity of synthetic polypeptides generated by positional scanning of Trp (SEQ ID NO: 21-SEQ ID NO: 44) was performed on the NCI-H125 cell line. The test was performed by the procedure previously described. (Perera Y., et al., 2012, J. Pept. Sci, 18 (4): 215-23). Precursor polypeptides (F11P19, F11P20, F11P21) and peptide CIGB-300 were included as positive controls. The polypeptides were evaluated at the concentrations of 12.5; 25; fifty; 100 and 200 μM.
The evaluation of the antiproliferative activity of synthetic polypeptides A15P35, A15P36 and A15P37 (SEQ ID NO: 46-SEQ ID NO: 48) was performed on the NCI-H125, AsPC-1, PanC-1 (pancreatic carcinoma) and OCI-AML3 (acute myeloid leukemia-3) cell lines. The test was carried out according to the procedure previously described (Perera Y, et al., 2012, J. Pept. Sci, 18 (4):215-23). […] The polypeptides A15P35, A15P36 and A15P37 were able to produce a dose-dependent effect on the proliferation of NCI-H125 cells.
Antiproliferative assays were performed on the NCI-H125, Hep2C (laryngeal carcinoma) cell lines, and on two bladder cancer lines (MGH-U3 and MGH-U4). The test was carried out according to the procedure previously described (Perera Y., et al, 2012, Pept. Sci, 18 (4):215-23).
`N=C(N)NCCC[C@H](NC(=O)CN)C(=O)N[C@@H](CCCCN)C(=O)N[C@@H](CCCCN)C(=O)N[C@@H](CCCNC(=N)N)C(=O)N[C@@H](CCCNC(=N)N)C(=O)N[C@@H](CCC(N)=O)C(=O)N[C@@H](CCCNC(=N)N)C(=O)N[C@@H](CCCNC(=N)N)C(=O)N[C@@H](CCCNC(=N)N)C(=O)N1CCC[C@H]1C(=O)N1CCC[C@H]1C(=O)N[C@@H](CCC(N)=O)C(=O)NCCC(=O)N[C@@H](Cc1c[nH]c2ccccc12)C(=O)N[C@@H](Cc1ccc(O)cc1)C(=O)N[C@@H](CCCNC(=N)N)C(=O)N[C@@H](Cc1ccc(O)cc1)C(=O)N[C@@H](CCCCN)C(=O)N[C@@H](CCCNC(=N)N)C(=O)N[C@@H](CC(=O)O)C(=O)N1CCC[C@H]1C(N)=O` [A14P27, GRKKRRQRRRPPQ-βA-WYRYKRDP] (H-GRKKRRQRRRPPQ[βAla]WYRYKRDP-NH2; N-terminus and C-terminus assumed): the IC50 turned out to be 165 µM. Take `N=C(N)NCCC[C@H](NC(=O)CN)C(=O)N[C@@H](CCCCN)C(=O)N[C@@H](CCCCN)C(=O)N[C@@H](CCCNC(=N)N)C(=O)N[C@@H](CCCNC(=N)N)C(=O)N[C@@H](CCC(N)=O)C(=O)N[C@@H](CCCNC(=N)N)C(=O)N[C@@H](CCCNC(=N)N)C(=O)N[C@@H](CCCNC(=N)N)C(=O)N1CCC[C@H]1C(=O)N1CCC[C@H]1C(=O)N[C@@H](CCC(N)=O)C(=O)NCCC(=O)NCC(=O)N[C@@H](Cc1ccc(O)cc1)C(=O)N[C@@H](CCCNC(=N)N)C(=O)N[C@@H](Cc1ccc(O)cc1)C(=O)N[C@@H](Cc1c[nH]c2ccccc12)C(=O)N[C@@H](CCCNC(=N)N)C(=O)N[C@@H](CC(=O)O)C(=O)N1CCC[C@H]1C(N)=O` [A14P31, GRKKRRQRRRPPQ-βA-GYRYWRDP] (H-GRKKRRQRRRPPQ[βAla]GYRYWRDP-NH2; N-terminus and C-terminus assumed): the IC50 stood at 135 µM. On to `N=C(N)NCCC[C@H](NC(=O)CN)C(=O)N[C@@H](CCCCN)C(=O)N[C@@H](CCCCN)C(=O)N[C@@H](CCCNC(=N)N)C(=O)N[C@@H](CCCNC(=N)N)C(=O)N[C@@H](CCC(N)=O)C(=O)N[C@@H](CCCNC(=N)N)C(=O)N[C@@H](CCCNC(=N)N)C(=O)N[C@@H](CCCNC(=N)N)C(=O)N1CCC[C@H]1C(=O)N1CCC[C@H]1C(=O)N[C@@H](CCC(N)=O)C(=O)NCCC(=O)NCC(=O)N[C@@H](Cc1ccc(O)cc1)C(=O)N[C@@H](CCCNC(=N)N)C(=O)N[C@@H](Cc1ccc(O)cc1)C(=O)N[C@@H](CCCCN)C(=O)N[C@@H](CCCNC(=N)N)C(=O)N[C@@H](Cc1c[nH]c2ccccc12)C(=O)N1CCC[C@H]1C(N)=O` [A14P33, GRKKRRQRRRPPQ-βA-GYRYKRWP] (H-GRKKRRQRRRPPQ[βAla]GYRYKRWP-NH2; N-terminus and C-terminus assumed), for which the IC50 came to 124 µM. Consider `N=C(N)NCCC[C@H](NC(=O)CN)C(=O)N[C@@H](CCCCN)C(=O)N[C@@H](CCCCN)C(=O)N[C@@H](CCCNC(=N)N)C(=O)N[C@@H](CCCNC(=N)N)C(=O)N[C@@H](CCC(N)=O)C(=O)N[C@@H](CCCNC(=N)N)C(=O)N[C@@H](CCCNC(=N)N)C(=O)N[C@@H](CCCNC(=N)N)C(=O)N1CCC[C@H]1C(=O)N1CCC[C@H]1C(=O)N[C@@H](CCC(N)=O)C(=O)NCCC(=O)N[C@@H](CCCNC(=N)N)C(=O)N[C@@H](CCCCN)C(=O)N[C@@H](CCCNC(=N)N)C(=O)N[C@@H](Cc1c[nH]c2ccccc12)C(=O)N[C@@H](CCCNC(=N)N)C(=O)N[C@@H](Cc1ccc(O)cc1)C(=O)N[C@@H](CC(=O)O)C(=O)N1CCC[C@H]1C(N)=O` [A14P43, GRKKRRQRRRPPQ-βA-RKRWRYDP] (H-GRKKRRQRRRPPQ[βAla]RKRWRYDP-NH2; N-terminus and C-terminus assumed), for which the IC50 was found to be 107 µM.

Source of the values: patent US20240317827A1, “LINEAR PEPTIDES INHIBITING CK2-MEDIATED PHOSPHORYLATION AND COMPOSITIONS COMPRISING SAME” (CENTRO DE INGENIERÍA GENÉTICA Y BIOTECNOLOGÍA, priority 2021, published 2024).
